Measured values published in US10392368B2, “Pyrazolo and triazolo bicyclic compounds as JAK kinase inhibitors” (THERAVANCE BIOPHARMA R&D IP, LLC, priority 2017, dated 2019).
Read-outs that look alike come from different tables or passages of the source.

Key:
Tyk2 = biological target: T1, Tyk2 (Homo sapiens, UniProt P29597); test: Biochemical Tyk2 kinase assay (LanthaScreen); details: for Ki: read-out: Tyk 2 (pKi) (converted)
T1 construct: GST; purchased Life Technologies
Outline: (§1)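 TR-FRET read-out: terbium anti-pSTAT1 (pTyr701) antibody, 2 nM, with 10 mM EDTA quench, emission ratio 520/495 nm. GST-JAK phosphorylates GFP-STAT1 peptide for 1 h at ambient temperature after 1 h compound pre-incubation. pIC50 from dose-response converted to pKi by Cheng-Prusoff.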

JAK2 = biological target: T2, JAK2 (Homo sapiens, UniProt O60674); test: Biochemical JAK2 kinase assay (LanthaScreen); details: for Ki: read-out: JAK 2 (pKi) (converted)
T2 construct: GST; purchased Life Technologies
Outline: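 pKi values derive from pIC50 via Cheng-Prusoff, with IC50 from a 4-parameter fit of percent-inhibition TR-FRET data using Tb-anti-pSTAT1 (pTyr701) detection. Compound, GST-JAK2 and GFP-STAT1 substrate were pre-incubated 1 h, then ATP started a 1 h ambient reaction (HEPES pH 7.5, 10 mM MgCl2, 1% DMSO).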

JAK1 = biological target: T3, JAK1 (Homo sapiens, UniProt P23458); test: Biochemical JAK1 kinase assay (LanthaScreen); details: for Ki: read-out: JAK 1 (pKi) (converted)
T3 construct: GST; purchased Life Technologies
Outline: as §1

[1] = test system: IL-2 stimulated pSTAT5 in Tall-1 T cells; test: Cellular JAK3 potency assay: inhibition of IL-2 stimulated pSTAT5 in Tall-1 T cells; assay type: cell-based, human; details: for IC50: Homo sapiens, read-out: Tall-1 (pIC50) (converted)
Outline: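 Inhibition of IL-2-induced pSTAT5 was quantified by AlphaLisa in Tall-1 cell lysates. Compound exposure lasted 1 h before 30 min stimulation with 300 ng/ml IL-2 final.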

JAK3 = biological target: T4, JAK3 (Homo sapiens, UniProt P52333); test: Biochemical JAK3 kinase assay (LanthaScreen); parameters: GST; purchased Life Technologies; details: for Ki: read-out: JAK 3 (pKi) (converted)
T4 sequence (P52333 1-1124): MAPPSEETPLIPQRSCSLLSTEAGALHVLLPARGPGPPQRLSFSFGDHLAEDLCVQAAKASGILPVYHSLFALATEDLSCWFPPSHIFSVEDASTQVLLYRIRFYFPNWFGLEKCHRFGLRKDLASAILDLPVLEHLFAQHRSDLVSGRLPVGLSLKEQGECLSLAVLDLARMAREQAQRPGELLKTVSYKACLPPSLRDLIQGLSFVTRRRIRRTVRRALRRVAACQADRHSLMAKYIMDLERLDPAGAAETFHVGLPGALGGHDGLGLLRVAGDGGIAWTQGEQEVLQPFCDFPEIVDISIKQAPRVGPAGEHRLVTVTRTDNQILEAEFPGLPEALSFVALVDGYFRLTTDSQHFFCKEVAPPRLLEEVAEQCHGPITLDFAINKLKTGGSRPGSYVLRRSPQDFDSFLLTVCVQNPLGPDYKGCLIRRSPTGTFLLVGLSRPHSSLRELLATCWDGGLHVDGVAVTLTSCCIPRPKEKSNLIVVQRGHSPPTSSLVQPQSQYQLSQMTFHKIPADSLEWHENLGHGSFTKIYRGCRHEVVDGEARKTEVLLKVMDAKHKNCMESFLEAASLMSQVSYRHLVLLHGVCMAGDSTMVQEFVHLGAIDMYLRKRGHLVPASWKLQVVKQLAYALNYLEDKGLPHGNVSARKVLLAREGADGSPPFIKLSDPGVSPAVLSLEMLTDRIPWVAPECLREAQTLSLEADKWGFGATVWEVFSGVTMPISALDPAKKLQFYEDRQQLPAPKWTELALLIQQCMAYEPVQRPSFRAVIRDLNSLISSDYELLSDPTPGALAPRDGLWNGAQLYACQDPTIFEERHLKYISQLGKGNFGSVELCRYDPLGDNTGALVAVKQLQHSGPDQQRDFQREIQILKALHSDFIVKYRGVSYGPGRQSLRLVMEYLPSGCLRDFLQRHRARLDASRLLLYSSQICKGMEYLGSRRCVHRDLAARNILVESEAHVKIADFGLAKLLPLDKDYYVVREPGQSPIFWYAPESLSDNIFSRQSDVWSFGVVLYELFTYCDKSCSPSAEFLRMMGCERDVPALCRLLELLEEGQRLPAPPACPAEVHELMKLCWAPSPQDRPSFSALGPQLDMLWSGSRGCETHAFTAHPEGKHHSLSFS
Outline: as §1

[2] = IL-2 stimulated pSTAT5 in Tall-1 T cells
[3] = selectivity: difference of pKi JAK3 and pKi JAK1
[4] = TALL-1, IL-2 stimulated pSTAT5 in Tall-1 T cells
[5] = TALL-1, IL-2 stimulated pSTAT5, Tall-1 T cells
[6] = selectivity JAK3 over JAK1, difference of pKi
[7] = IL-2 stimulated pSTAT5, Tall-1 T cells

T2 sequence (O60674 whole entry): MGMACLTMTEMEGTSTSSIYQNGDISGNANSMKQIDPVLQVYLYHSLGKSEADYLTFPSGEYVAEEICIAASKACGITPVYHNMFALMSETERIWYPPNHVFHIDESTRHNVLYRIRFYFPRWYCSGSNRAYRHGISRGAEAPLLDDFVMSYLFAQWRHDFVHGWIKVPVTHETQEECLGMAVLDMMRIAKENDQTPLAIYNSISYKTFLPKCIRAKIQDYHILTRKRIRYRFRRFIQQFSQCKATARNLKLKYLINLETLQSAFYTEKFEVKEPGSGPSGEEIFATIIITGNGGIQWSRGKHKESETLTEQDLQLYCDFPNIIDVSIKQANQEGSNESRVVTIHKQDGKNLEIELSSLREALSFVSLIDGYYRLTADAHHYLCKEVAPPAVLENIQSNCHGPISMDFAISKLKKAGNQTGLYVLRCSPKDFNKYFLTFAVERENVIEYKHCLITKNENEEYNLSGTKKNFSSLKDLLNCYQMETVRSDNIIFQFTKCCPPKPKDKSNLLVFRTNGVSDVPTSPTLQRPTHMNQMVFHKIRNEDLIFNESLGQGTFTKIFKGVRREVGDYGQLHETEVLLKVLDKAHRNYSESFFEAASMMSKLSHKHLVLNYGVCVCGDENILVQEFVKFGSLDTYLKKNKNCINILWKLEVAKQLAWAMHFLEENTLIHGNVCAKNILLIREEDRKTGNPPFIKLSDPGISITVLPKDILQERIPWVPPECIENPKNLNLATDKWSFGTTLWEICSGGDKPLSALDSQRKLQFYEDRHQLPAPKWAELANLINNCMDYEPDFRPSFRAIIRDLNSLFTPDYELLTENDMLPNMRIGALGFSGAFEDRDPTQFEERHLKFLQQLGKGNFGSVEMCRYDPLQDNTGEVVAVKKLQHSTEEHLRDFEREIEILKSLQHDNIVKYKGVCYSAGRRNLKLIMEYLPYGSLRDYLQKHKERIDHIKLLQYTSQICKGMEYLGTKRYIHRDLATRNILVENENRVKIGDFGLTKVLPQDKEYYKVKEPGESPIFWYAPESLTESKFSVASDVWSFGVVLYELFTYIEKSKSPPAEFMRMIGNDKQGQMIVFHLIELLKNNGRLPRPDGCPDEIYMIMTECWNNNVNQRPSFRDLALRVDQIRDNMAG
T1 sequence (P29597 whole entry): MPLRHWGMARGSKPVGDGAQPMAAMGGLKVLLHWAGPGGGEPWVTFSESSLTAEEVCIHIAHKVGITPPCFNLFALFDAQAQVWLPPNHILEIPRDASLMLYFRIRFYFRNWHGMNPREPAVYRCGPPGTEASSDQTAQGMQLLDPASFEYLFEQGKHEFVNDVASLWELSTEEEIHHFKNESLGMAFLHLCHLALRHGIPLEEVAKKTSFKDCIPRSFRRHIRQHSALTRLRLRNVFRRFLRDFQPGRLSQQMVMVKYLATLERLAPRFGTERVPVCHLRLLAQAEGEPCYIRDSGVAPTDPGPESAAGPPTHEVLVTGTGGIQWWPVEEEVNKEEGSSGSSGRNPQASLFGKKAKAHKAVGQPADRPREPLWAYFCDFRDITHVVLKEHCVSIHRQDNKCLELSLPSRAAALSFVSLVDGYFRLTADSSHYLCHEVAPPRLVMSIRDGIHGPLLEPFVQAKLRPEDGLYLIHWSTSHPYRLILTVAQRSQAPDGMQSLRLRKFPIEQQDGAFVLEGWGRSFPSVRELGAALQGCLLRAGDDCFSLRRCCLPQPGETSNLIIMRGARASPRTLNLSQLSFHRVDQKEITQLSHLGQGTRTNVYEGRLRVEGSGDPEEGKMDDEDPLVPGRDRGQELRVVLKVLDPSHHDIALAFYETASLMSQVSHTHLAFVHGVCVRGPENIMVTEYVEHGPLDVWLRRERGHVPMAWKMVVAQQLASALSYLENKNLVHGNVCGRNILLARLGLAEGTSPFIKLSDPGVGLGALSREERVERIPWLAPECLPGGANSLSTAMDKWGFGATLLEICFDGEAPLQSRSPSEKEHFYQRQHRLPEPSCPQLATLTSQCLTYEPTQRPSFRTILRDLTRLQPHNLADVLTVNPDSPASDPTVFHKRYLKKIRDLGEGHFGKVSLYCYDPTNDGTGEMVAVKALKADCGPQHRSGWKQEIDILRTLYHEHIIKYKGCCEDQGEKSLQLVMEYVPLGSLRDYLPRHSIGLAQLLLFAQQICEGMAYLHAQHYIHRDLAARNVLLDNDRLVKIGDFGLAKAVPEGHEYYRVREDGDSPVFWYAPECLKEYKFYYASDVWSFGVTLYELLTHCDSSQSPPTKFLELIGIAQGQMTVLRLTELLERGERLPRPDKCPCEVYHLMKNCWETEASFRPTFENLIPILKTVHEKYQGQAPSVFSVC
T3 sequence (P23458 whole entry): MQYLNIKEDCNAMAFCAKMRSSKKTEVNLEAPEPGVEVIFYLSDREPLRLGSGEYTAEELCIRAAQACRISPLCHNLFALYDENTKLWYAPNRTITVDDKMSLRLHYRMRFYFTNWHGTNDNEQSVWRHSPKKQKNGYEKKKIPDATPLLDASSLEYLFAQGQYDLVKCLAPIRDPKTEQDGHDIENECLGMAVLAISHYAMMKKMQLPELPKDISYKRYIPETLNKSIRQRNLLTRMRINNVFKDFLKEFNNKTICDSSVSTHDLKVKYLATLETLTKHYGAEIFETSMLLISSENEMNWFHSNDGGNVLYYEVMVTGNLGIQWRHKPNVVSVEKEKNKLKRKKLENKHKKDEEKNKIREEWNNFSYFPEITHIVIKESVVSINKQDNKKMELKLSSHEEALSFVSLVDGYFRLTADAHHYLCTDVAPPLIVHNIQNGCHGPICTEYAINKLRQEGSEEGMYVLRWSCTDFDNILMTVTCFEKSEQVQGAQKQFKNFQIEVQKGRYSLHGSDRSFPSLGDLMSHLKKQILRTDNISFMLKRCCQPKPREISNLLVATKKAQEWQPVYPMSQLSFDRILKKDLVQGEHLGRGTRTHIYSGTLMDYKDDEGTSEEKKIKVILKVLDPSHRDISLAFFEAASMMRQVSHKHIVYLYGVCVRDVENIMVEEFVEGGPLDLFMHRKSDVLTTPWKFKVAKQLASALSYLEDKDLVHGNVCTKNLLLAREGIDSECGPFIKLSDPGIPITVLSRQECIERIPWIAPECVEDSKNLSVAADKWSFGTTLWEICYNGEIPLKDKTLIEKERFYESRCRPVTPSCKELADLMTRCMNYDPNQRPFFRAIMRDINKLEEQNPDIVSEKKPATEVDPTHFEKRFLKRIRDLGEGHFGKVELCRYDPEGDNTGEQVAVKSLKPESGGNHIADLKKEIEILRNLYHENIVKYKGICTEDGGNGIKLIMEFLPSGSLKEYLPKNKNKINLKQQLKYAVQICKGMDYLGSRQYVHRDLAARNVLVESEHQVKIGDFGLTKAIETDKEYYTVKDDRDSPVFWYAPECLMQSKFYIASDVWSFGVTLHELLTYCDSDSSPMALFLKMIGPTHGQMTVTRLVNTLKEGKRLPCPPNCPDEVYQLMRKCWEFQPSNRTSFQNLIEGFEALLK

Row | SMILES | Tyk 2 (pKi) (Tyk2) | JAK 2 (pKi) (JAK2) | JAK 1 (pKi) (JAK1) | Tall-1 (pIC50) [1, 2] | JAK 3 (pKi) (JAK3) | JAK3 (pKi)-JAK1 (pKi) (JAK3; [3]) | Ki (Tyk2) [nM] | Ki (JAK2) [nM] | Ki (JAK1) [nM] | IC50 [1, 4] [nM] | Ki (JAK3) [nM] | IC50 [1, 5] [nM] | JAK3 (pKi)-JAK1 (pKi) (JAK3; [6]) | Tall-1 (pIC50) [1, 7]
1 | C=CC(=O)N1CC(Oc2nc(-c3ccc(O)cc3)nc3[nH]ncc23)CC1C (stereo not drawn) [Compound 1-24] | E (a pKi value of 7 or below (Ki of 100 nM or above)) | E (a pKi value of 7 or below (Ki of 100 nM or above)) | E (a pKi value of 7 or below (Ki of 100 nM or above)) | C (a pIC50 value between 6 and 6.7 (IC50 between 1 μM and 200 nM)) | B (a pKi value between 9 and 10 (Ki between 1 nM and 0.1 nM)) | A (a value of 3 or above) |  |  |  |  |  |  |  | 
2 | C=CC(=O)N1CC(C)(COc2cc(-c3ccc(O)c(F)c3)nc3[nH]ncc23)C1 [Compound 3-98] |  |  |  |  |  | A (a value of 3 or above) | > 100 | > 100 | > 100 | 31.6 to 200 | < 0.1 |  |  | 
3 | C=CC(=O)N1CC[C@@H](Oc2cc(-c3ccc(O)cc3)cc3[nH]ncc23)C[C@H]1C [Compound 12-29] |  |  |  |  |  |  | > 100 | 10 to 100 | > 100 |  | 0.1 to 1 | < 31.6 | A (a value of 3 or above) | 
4 | C=CC(=O)N1CC(C#N)(COc2cc(-c3ccc(O)c(F)c3)cc3[nH]ncc23)C1 [Compound 3-23] | E (a pKi value of 7 or below (Ki of 100 nM or above)) | D (a pKi value between 7 and 8 (Ki between 100 nM and 10 nM)) | E (a pKi value of 7 or below (Ki of 100 nM or above)) | B (a pIC50 value between 6.7 (included) and 7.5 (IC50 between 200 nM and 32 nM)) | A (a pKi value≥10 (Ki≤0.1 nM)) | A (a value of 3 or above) |  |  |  |  |  |  |  | 
5 | CN(C)C/C=C/C(=O)N1CC(C#N)(COc2cc(-c3ccc(O)cc3)cc3[nH]ncc23)C1 [Compound 3-19] | E (a pKi value of 7 or below (Ki of 100 nM or above)) | E (a pKi value of 7 or below (Ki of 100 nM or above)) | E (a pKi value of 7 or below (Ki of 100 nM or above)) | B (a pIC50 value between 6.7 (included) and 7.5 (IC50 between 200 nM and 32 nM)) | B (a pKi value between 9 and 10 (Ki between 1 nM and 0.1 nM)) | A (a value of 3 or above) |  |  |  |  |  |  |  | 
6 | CN(C)C/C=C/C(=O)N1CC(C)(COc2nc(-c3ccc(O)c(F)c3)cc3[nH]ncc23)C1 [Compound 3-96] | E (a pKi value of 7 or below (Ki of 100 nM or above)) | E (a pKi value of 7 or below (Ki of 100 nM or above)) | E (a pKi value of 7 or below (Ki of 100 nM or above)) | B (a pIC50 value between 6.7 (included) and 7.5 (IC50 between 200 nM and 32 nM)) | B (a pKi value between 9 and 10 (Ki between 1 nM and 0.1 nM)) | A (a value of 3 or above) |  |  |  |  |  |  |  | 
7 | CN(C)CC=CC(=O)N1CCCC(Oc2cc(-c3ccc(O)c(Cl)c3)cc3[nH]ncc23)C1 (stereo not drawn) [Compound 8-2] | E (a pKi value of 7 or below (Ki of 100 nM or above)) | D (a pKi value between 7 and 8 (Ki between 100 nM and 10 nM)) | E (a pKi value of 7 or below (Ki of 100 nM or above)) |  | B (a pKi value between 9 and 10 (Ki between 1 nM and 0.1 nM)) |  |  |  |  |  |  |  | A (a value of 3 or above) | B (a pIC50 value between 6.7 (included) and 7.5 (IC50 between 200 nM and 32 nM))
8 | C=CC(=O)N1CCCC(Oc2cc(-c3ccc(O)cc3)cc3[nH]ncc23)C1 (stereo not drawn) [Compound 8-1] | E (a pKi value of 7 or below (Ki of 100 nM or above)) | D (a pKi value between 7 and 8 (Ki between 100 nM and 10 nM)) | E (a pKi value of 7 or below (Ki of 100 nM or above)) |  | B (a pKi value between 9 and 10 (Ki between 1 nM and 0.1 nM)) |  |  |  |  |  |  |  | B (a value of 2.3 to 3) | A (a pIC50 value≥7.5 (IC50≤32 nM))
9 | C=CC(=O)N1CC(F)(COc2nc(-c3ccc(O)c(Cl)c3)cc3[nH]ncc23)C1 [Compound 3-47] |  |  |  |  |  | B (a value of 2.3 to 3) | > 100 | 10 to 100 | > 100 | < 31.6 | 0.1 to 1 |  |  | 
10 | C=CC(=O)N1CCC(C)(Nc2cc(-c3ccc(O)c(Cl)c3)cc3[nH]ncc23)CC1 [Compound 7-11] | E (a pKi value of 7 or below (Ki of 100 nM or above)) | D (a pKi value between 7 and 8 (Ki between 100 nM and 10 nM)) | E (a pKi value of 7 or below (Ki of 100 nM or above)) |  | A (a pKi value≥10 (Ki≤0.1 nM)) |  |  |  |  |  |  |  | A (a value of 3 or above) | A (a pIC50 value≥7.5 (IC50≤32 nM))
11 | C=CC(=O)N1C[C@@H](Oc2cc(-c3ccc(O)cc3)cc3[nH]ncc23)C[C@H]1C [Compound 1-11] |  |  |  |  |  | A (a value of 3 or above) | > 100 | > 100 | > 100 | < 31.6 | < 0.1 |  |  | 
12 | CN(C)C/C=C/C(=O)N1CC(COc2nc(-c3ccc(O)c(F)c3)cc3[nH]ncc23)C1 [Compound 3-36] |  |  |  |  |  | A (a value of 3 or above) | > 100 | > 100 | > 100 | 31.6 to 200 | < 0.1 |  |  | 
13 | C=CC(=O)N1CC[C@H](S(=O)(=O)c2cc(-c3ccc(O)cc3)cc3[nH]ncc23)C1 [Compound 13] |  |  |  |  |  | A (a value of 3 or above) | > 100 | > 100 | > 100 | 31.6 to 200 | < 0.1 |  |  | 
14 | C=CC(=O)N1CCS(=O)(=O)C(C(=O)Nc2cc(-c3ccc(O)cc3)cc3[nH]ncc23)C1 (stereo not drawn) [Compound 12-45] |  |  |  |  |  |  | > 100 | > 100 | > 100 |  | < 0.1 | 200 to 1000 | A (a value of 3 or above) | 
